Experimental findings from patent US8003785B2 (Takeda Pharmaceutical Company Limited, priority 2008, dated 2011) are described below.

Broadly, the pIC50 is the IC50 on a negative log10 scale, so that one unit is a factor of ten. Low values mean a large IC50, high ones a small IC50.

Each structure is given as a SMILES string. pIC50: −log10 of the molar value.

The target of one experiment is T1, PLK1 (Homo sapiens, UniProt P53350).
T1 construct: Full-length, active GST-PLK1 is purified from Sf9 insect cells; made in house; host or cells: Sf9 insect cells
T1 sequence (P53350 whole entry): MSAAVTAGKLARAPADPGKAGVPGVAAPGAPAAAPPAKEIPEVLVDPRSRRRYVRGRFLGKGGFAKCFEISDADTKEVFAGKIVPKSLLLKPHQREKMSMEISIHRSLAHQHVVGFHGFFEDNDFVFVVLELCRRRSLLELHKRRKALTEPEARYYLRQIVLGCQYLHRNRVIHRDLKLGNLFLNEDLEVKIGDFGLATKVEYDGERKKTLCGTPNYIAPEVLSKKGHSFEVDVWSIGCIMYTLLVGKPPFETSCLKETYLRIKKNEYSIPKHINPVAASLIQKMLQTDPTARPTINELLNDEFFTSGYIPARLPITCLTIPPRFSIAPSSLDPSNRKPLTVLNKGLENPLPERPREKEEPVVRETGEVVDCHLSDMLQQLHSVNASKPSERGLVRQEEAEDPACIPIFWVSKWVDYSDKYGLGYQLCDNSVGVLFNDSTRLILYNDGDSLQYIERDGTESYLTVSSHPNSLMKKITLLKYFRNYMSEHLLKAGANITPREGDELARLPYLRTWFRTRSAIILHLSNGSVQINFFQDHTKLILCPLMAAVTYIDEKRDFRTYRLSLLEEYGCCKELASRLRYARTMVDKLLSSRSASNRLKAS
As to the kind of experiment: Biochemical Characterization Assay: HTRF kinase assay, GST-PLK1 phosphorylation of GST-p53. Conditions: GST-PLK1, GST-p53 substrate. A digest of the protocol:
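HTRF read-out of p53 phosphorylation: after EDTA stop, anti-phospho-p53 antibody bound 30 min at 37 °C in HEPES pH 7 buffer, with Eu-anti-rabbit/APC-anti-GST detection. Kinase step used full-length Sf9-expressed GST-PLK1 (3 ug/mL) and E. coli GST-p53 substrate, 35 min at 37 °C.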
On the technique in general: Time-resolved FRET reads energy transfer from a long-lived donor to a nearby acceptor.
The compound `COc1ccc(CN2CC(F)(F)C(=O)N(C)c3cnc(Nc4ccc(C(=O)NC5CCN(C)CC5)cc4OC)nc32)cc1` [Example I-291, 4-[7,7-difluoro-9-(4-methoxy-benzyl)-5-methyl-6-oxo-6,7,8,9-tetrahydro-5H-pyrimido[4,5-b][1,4]diazepin-2-ylamino]-3-methoxy-N-(1-methyl-piperidin-4-yl)-benzamide] showed a pIC50 of 6.30 to 7.29.

For `COc1cc(C(=O)O)ccc1Nc1ncc2c(n1)N([C@@H]1C[C@H]1c1ccccc1)CC(F)(F)C(=O)N2C` (relative stereo) [Example I-287, 4-[7,7-difluoro-5-methyl-6-oxo-9-(trans-2-phenyl-cyclopropyl)-6,7,8,9-tetrahydro-5H-pyrimido[4,5-b][1,4]diazepin-2-ylamino]-3-methoxy-benzoic acid], the pIC50 was less than 5.30.

Take `CCc1cc(C(=O)NC2CCNCC2)ccc1Nc1ncc2c(n1)N(C1CCCC1)CC(F)(F)C(=O)N2C` [Example I-202, 4-(9-cyclopentyl-7,7-difluoro-5-methyl-6-oxo-6,7,8,9-tetrahydro-5H-pyrimido[4,5-b][1,4]diazepin-2-ylamino)-3-ethyl-N-piperidin-4-yl-benzamide]: the pIC50 was 7.30 to 9.00.

Consider `CN(C)CCCNC(=O)c1ccc(Nc2ncc3c(n2)N(C2CCCC2)CC(F)(F)C(=O)N3C)c(C(F)(F)F)c1` [Example I-209, 4-(9-cyclopentyl-7,7-difluoro-5-methyl-6-oxo-6,7,8,9-tetrahydro-5H-pyrimido[4,5-b][1,4]diazepin-2-ylamino)-N-(3-dimethylamino-propyl)-3-trifluoromethyl-benzamide], for which the pIC50 was 7.30 to 9.00.

The compound `COc1cc(C(=O)NC2CCNCC2)c(F)cc1Nc1ncc2c(n1)N(C1CCCC1)CC(F)(F)C(=O)N2C` [Example I-178, 4-(9-cyclopentyl-7,7-difluoro-5-methyl-6-oxo-6,7,8,9-tetrahydro-5H-pyrimido[4,5-b][1,4]diazepin-2-ylamino)-2-fluoro-5-methoxy-N-piperidin-4-yl-benzamide] had a pIC50 of 7.30 to 9.00.

Staying with this experiment, now noted: GST-PLK1, GST-p53 substrate, ATP.
Consider `COc1cc(C(=O)NC2CC3CCC(C2)N3C)ccc1Nc1ncc2c(n1)N(C1CCCC1)CC(F)(F)C(=O)N2C` (stereo not drawn) [Example I-50, 4-(9-cyclopentyl-7,7-difluoro-5-methyl-6-oxo-6,7,8,9-tetrahydro-5H-pyrimido[4,5-b][1,4]diazepin-2-ylamino)-3-methoxy-N-(8-methyl-8-aza-bicyclo[3.2.1]oct-3-yl)-benzamide], for which the pIC50 is 7.30 to 9.00.

As to `COc1cc(C(=O)N[C@H]2CCN(Cc3ccccc3)C2)ccc1Nc1ncc2c(n1)N(C1CCCC1)CC(F)(F)C(=O)N2C` [Example I-100, N—((S)-1-benzyl-pyrrolidin-3-yl)-4-(9-cyclopentyl-7,7-difluoro-5-methyl-6-oxo-6,7,8,9-tetrahydro-5H-pyrimido[4,5-b][1,4]diazepin-2-ylamino)-3-methoxy-benzamide], the pIC50 is 7.30 to 9.00.

`COc1cc(C(=O)NCC(F)(F)F)ccc1Nc1ncc2c(n1)N(C1CCCC1)CC(F)(F)C(=O)N2C` [Example I-31, 4-(9-cyclopentyl-7,7-difluoro-5-methyl-6-oxo-6,7,8,9-tetrahydro-5H-pyrimido[4,5-b][1,4]diazepin-2-ylamino)-3-methoxy-N-(2,2,2-trifluoro-ethyl)-benzamide]: the pIC50 was 7.30 to 9.00.

The compound `COc1cc(C(=O)N[C@H]2CN(C(=O)OCc3ccccc3)CC[C@@H]2OC)ccc1Nc1ncc2c(n1)N(C1CCCC1)CC(F)(F)C(=O)N2C` (racemic) [Example I-58, rac-(3S,4S)-3-[4-(9-cyclopentyl-7,7-difluoro-5-methyl-6-oxo-6,7,8,9-tetrahydro-5H-pyrimido[4,5-b][1,4]diazepin-2-ylamino)-3-methoxy-benzoylamino]-4-methoxy-piperidine-1-carboxylic acid benzyl ester] showed a negative-log IC50 (pIC50) of 6.30 to 7.29.
